Values quoted from earlier work in US20220016034A1, “OPIOID RECEPTOR MODULATOR DOSAGE FORMULATIONS” (Allergan Holdings Unlimited Company, priority 2020, published 2022).

System: stressed and non-stressed mice

## CN(C)C(=O)C(CCN1CCC(O)(c2ccc(Cl)cc2)CC1)(c1ccccc1)c1ccccc1 [loperamide]
  gastrointestinal transit and fecal output: completely prevented fecal output in a dose-dependent manner
